Measured values published in patent US12193441B2, “Antimicrobial mixtures comprising at least one hydroxyphenone derivative” (SYMRISE AG, priority 2018, dated 2025).

test system: mold growth on moist alfalfa hay; assay: not given; settings: preservation of moist alfalfa hay; cited from earlier work

| Molecule | prevention of mold growth |
| --- | --- |
| CC(=O)c1ccc(O)cc1 [4-Hydroxyacetophenone] | not prevent mold growth |

test system: A. brasiliensis; assay: Minimum Inhibitory Concentration (MIC) and Kull synergy index against A. brasiliensis; format: cell-based; design: unit not given here; settings: not given
Description: To calculate the synergism between compounds of formula (I) and other antimicrobial actives, the Kull equation^1 2 was used SI=(Cmixture×PA)/CA+(Cmixture×PB)/CB (I) • where • SI is the Synergy Index according to Kull^1), 2) • CA is the […] for substance A • CB is the cell count for substance B • Cmixture is the cell count for the mixture of substances A and B • PA is the proportion of the substance A in the mixture • PB is the proportion of the substance B in the mixture. ^1 Kull, F. C., Eismann, P. C., Sylvestrowicz, H. D., and R. L. Mayer (1961). Mixtures of Quaternary Ammonium Compounds and Long-chain Fatty Acids as Antifungal Agents. Applied Microbiology 9, 538-541.^2 Steinberg, D. C. (2000). Measuring Synergy. Cosmetics & Toiletries 115 (11), 59-62.
Antimicrobil activity was evaluated by determining the Minimum Inhibitory Concentration (MIC) representing the lowest concentration of a chemical which prevents visible growth of a bacterium.
The MIC values were determined by preparing solutions of the chemical in vitro at increasing concentrations, incubating the solutions with the separate batches of cultured bacteria, and measuring the results using agar dilution or broth microdilution. Results have been graded into susceptible (often called sensitive), intermediate, or resistant to a particular antibiotic by using a cutoff point. Cut off points are agreed upon values, published in guidelines of a reference body, such as the U.S. Clinical and Laboratory Standards Institute (CLSI), the British Society for Antimicrobial Chemotherapy (BSAC) or the European Committee on Antimicrobial Susceptibility Testing (EUCAST).

| Molecule | MIC (Comparison: MIC values for the actives taken alone) |
| --- | --- |
| C/C=C/C=C/C(=O)[O-].[K+] [Potassium sorbate] | 5000 |

same assay, conditions: active taken alone; A. brasiliensis

| MIC (Comparison: MIC values for the actives taken alone) | Molecule |
| --- | --- |
| 250 | Cc1cc(O)ccc1C(C)C [4-Isopropyl-3-methylphenol] |
| 5.000 | C=CCCCCCCCCC(=O)NCC(=O)O [Undecenoyl glycin] |
| 40.000 | O=C(O)CN(CCN(CC(=O)O)CC(=O)O)CC(=O)O [Ethylene diamine tetra acetate (EDTA), Ethylene diamine tetra acetate] |
| 2000 | O=[N+]([O-])C(Br)(CO)CO [Bronopol, 2-bromo-2-nitro-1,3-propanediol] |
| 2.000 | CCCCCCCCCC(=O)OCC(O)CO (stereo not shown) [Glyceryl caprate] |
| 2500 | CC(=O)c1ccc(O)cc1 [4-Hydroxyacetophenone] |
| 2.000 | CCCCCCCCCCCC(=O)N[C@@H](CCCN=C(N)N)C(=O)OCC.Cl [Ethyl lauroyl arginate HCl] |
| 60.000 | CCCCCCCC(=O)NCC(=O)O [Capryloyl glycine] |

Continued, molecule first:

| Molecule | MIC (Comparison: MIC values for the actives taken alone) |
| --- | --- |
| CC(C)(C)C(=O)C(Oc1ccc(Cl)cc1)n1ccnc1 (stereo not shown) [Climbazol, Crinipan, Climbazol] | 64 |
| CCCCNC(=O)OCC#CI [IPBC, 3-Iodo-2-propynylbutylcarbamate, 3-Iodo-2-propynylbutylcarbamate] | 1 |
| OCCCO [1,3-Propanediol] | 200.000 |
| O=C([O-])c1ccccc1.[Na+] [Sodium benzoate] | 10.000 |
| Glceryl caprylate | 2.000 |
| C=CCCCCCCCCC(=O)O [Undecylenic acid, Undec-10-enoic acid, Undec-10-enoic acid] | 500 |
| Oc1cc(Cl)ccc1Oc1ccc(Cl)cc1Cl [Triclosan, 2,4,4′-trichloro-2′-hydroxy-diphenyl ether] | 32 |
| Sorbitan caprylate | 4000 |
| Cc1cc(CC(C)CC(C)(C)C)n(O)c(=O)c1.NCCO (stereo not shown) [Piroctone oleamine, Octopyrox, 1-hydroxy-4-methyl-6-(2,4,4-trimethylpentyl)-2-(1H)-pyridinone monoethanolamine salt] | 64 |
| OCc1ccccc1 [Benzyl alcohol] | 5000 |

test system: not given; assay: not given; settings: chemical in vitro assay; constituent of Tagetes mendocina; cited from earlier work

| Molecule | antioxidant activity |
| --- | --- |
| CC(=O)c1ccc(O)cc1 [4-Hydroxyacetophenone] | one of the active constituents |

test system: subcutaneous inflammation; assay: not given; settings: administered intraperitoneally; cited from earlier work

| Molecule | reduction of subcutaneous inflammation |
| --- | --- |
| CC(=O)c1ccc(O)cc1 [4-Hydroxyacetophenone] | one of the active compounds reducing subcutaneous inflammation |
